Results: patent US9346811B2, “6,7-dihydro-pyrazolo[1,5-a]pyrazin-4-ylamine derivatives useful as inhibitors of beta-secretase (BACE)” (JANSSEN PHARMACEUTICA NV, priority 2011, dated 2016)

Assays:
brain levels of total Aβ = assay: In vivo efficacy: brain Aβtotal lowering (ELISA); parameters: species or system mouse
Excerpt: (§1) To determine whether acute administration of an Aβ42 peptide lowering agent would reduce Aβ peptide levels in vivo, non-transgenic rodents, e.g. mice or rats were used. Animals treated with the Aβ peptide lowering agent were examined and compared to those untreated or treated with vehicle and brain levels of soluble Aβ42 and total Aβ were quantitated by standard techniques, for example, using ELISA. Treatment periods varied from hours (h) to days and were adjusted based on the results of the Aβ42 lowering once a time course of onset of effect could be established.
(§2) A typical protocol for measuring Aβ42 lowering in vivo is shown but it is only one of many variations that could be used to optimize the levels of detectable Aβ. For example, Aβ peptide lowering compounds were formulated in 20% hydroxypropyl β cyclodextrin. The Aβ peptide lowering agents were administered as a single oral dose (p.o.) or a single subcutaneous dose (s.c.) to overnight fasted animals. After a certain time, usually 2 or 4 h (as indicated in Table 7), the animals were sacrificed and Aβ42 levels were analysed.
(§3) Blood was collected by decapitation and exsanguinations in EDTA-treated collection tubes. Blood was centrifuged at 1900 g for 10 minutes (min) at 4° C. and the plasma recovered and flash frozen for later analysis. The brain was removed from the cranium and hindbrain. The cerebellum was removed and the left and right hemisphere were separated. The left hemisphere was stored at −18° C. for quantitative analysis of test compound levels. The right hemisphere was rinsed with phosphate-buffered saline (PBS) buffer and immediately frozen on dry ice and stored at −80° C. until homogenization for biochemical assays.
(§4) Mouse brains from non-transgenic animals were resuspended in 8 volumes of 0.4% DEA (diethylamine)/50 mM NaCl containing protease inhibitors (Roche-11873580001 or 04693159001) per gram of tissue, e.g. for 0.158 g brain, add 1.264 ml of 0.4% DEA. All samples were homogenized in the FastPrep-24 system (MP Biomedicals) using lysing matrix D (MPBio #6913-100) at 6 m/s for 20 seconds. Homogenates were centrifuged at 221.300×g for 50 min. The resulting high speed supernatants were then transferred to fresh eppendorf tubes. Nine parts of supernatant were neutralized with 1 part 0.5 M Tris-HCl pH 6.8 and used to quantify Aβtotal and Aβ42.
(§5) To quantify the amount of Aβtotal and Aβ42 in the soluble fraction of the brain homogenates, Enzyme-Linked-Immunosorbent-Assays were used. Briefly, the standards (a dilution of synthetic Aβ1-40 and […], Bachem) were prepared in 1.5 ml Eppendorf tube in Ultraculture, with final concentrations ranging from 10000 to 0.3 pg/ml. The samples and standards were co-incubated with HRPO-labelled N-terminal antibody for Aβ42 detection and with the biotinylated mid-domain antibody 4G8 for Aβtotal detection. 50 μl of conjugate/sample or conjugate/standards mixtures were then added to the antibody-coated plate (the capture antibodies selectively recognize the C-terminal end of Aβ42, antibody JRF/cAβ42/26, for Aβ42 detection and the N-terminus of Aβ, antibody JRF/rAβ/2, for Aβtotal detection). The plate was allowed to incubate overnight at 4° C. in order to allow formation of the antibody-amyloid complex. Following this incubation and subsequent wash steps the ELISA for Aβ42 quantification was finished by addition of Quanta Blu fluorogenic peroxidase substrate according to the manufacturer's instructions (Pierce Corp., Rockford, Il.). A reading was performed after 10 to 15 min (excitation 320 nm/emission 420 nm).
For Aβtotal detection, a Streptavidine-Peroxidase-Conjugate was added, followed 60 min later by an additional wash step and addition of Quanta Blu fluorogenic peroxidase substrate according to the manufacturer's instructions (Pierce Corp., Rockford, Il.). A reading was performed after 10 to 15 min (excitation 320 nm/emission 420 nm).

[1] = tested on: Aβtotal produced and secreted into the medium of human neuroblastoma SKNBE2 cells; assay: Cellular αlisa assay in SKNBE2 cells, Aβtotal; format: cell-based; details: SKNBE2 cells expressing hAPP695, 18 hours incubation; for IC50: Homo sapiens, SKNBE2, 18 h, read-out: Cellular αlisa assay in SKNBE2 cells Aβtotal pIC50 (converted)
Description: (§6) Cellular αlisa Assay in SKNBE2 Cells
(§7) In two αlisa assays the levels of Aβtotal and Aβ42 produced and secreted into the medium of human neuroblastoma SKNBE2 cells are quantified. The assay is based on the human neuroblastoma SKNBE2 expressing the wild type Amyloid Precursor Protein (hAPP695). The compounds are diluted and added to these cells, incubated for 18 hours and then measurements of Aβ42 and Aβtotal are taken. Aβtotal and Aβ42 are measured by sandwich αlisa. αlisa is a sandwich assay using biotinylated antibody AbN/25 attached to streptavidin coated beads and antibody Ab4G8 or cAb42/26 conjugated acceptor beads for the detection of Aβtotal and Aβ42 respectively. In the presence of Aβtotal or Aβ42, the beads come into close proximity. The excitation of the Donor beads provokes the release of singlet oxygen molecules that triggers a cascade of energy transfer in the Acceptor beads, resulting in light emission. Light emission is measured after 1 hour incubation (excitation at […] and emission at 615 nm).
(§8) A best-fit curve is fitted by a minimum sum of squares method to the plot of % Controlmin versus compound concentration.

[2] = tested on: brain levels of soluble Aβ42; assay: In vivo efficacy: brain Aβ42 lowering (ELISA); parameters: species or system mouse
Excerpt: as §1, §2, §3, §4, §5
In this model at least 20% Aβ42 lowering compared to untreated animals would be advantageous.

[3] = tested on: Aβ42 produced and secreted into the medium of human neuroblastoma SKNBE2 cells; assay: Cellular αlisa assay in SKNBE2 cells, Aβ42; format: cell-based; details: SKNBE2 cells expressing hAPP695, 18 hours incubation; for IC50: Homo sapiens, SKNBE2, 18 h, read-out: Cellular αlisa assay in SKNBE2 cells Aβ42 pIC50 (converted)
Description: as §6, §7, §8

[4] = target: recombinant BACE1 protein (Homo sapiens, UniProt P56817); assay: Biochemical FRET based assay; details: recombinant BACE1 1 μg/ml, 120 min, pH 5.0; for IC50: read-out: Biochemical FRET based assay pIC50 (converted)
Chain of recombinant BACE1 protein (P56817 46-501): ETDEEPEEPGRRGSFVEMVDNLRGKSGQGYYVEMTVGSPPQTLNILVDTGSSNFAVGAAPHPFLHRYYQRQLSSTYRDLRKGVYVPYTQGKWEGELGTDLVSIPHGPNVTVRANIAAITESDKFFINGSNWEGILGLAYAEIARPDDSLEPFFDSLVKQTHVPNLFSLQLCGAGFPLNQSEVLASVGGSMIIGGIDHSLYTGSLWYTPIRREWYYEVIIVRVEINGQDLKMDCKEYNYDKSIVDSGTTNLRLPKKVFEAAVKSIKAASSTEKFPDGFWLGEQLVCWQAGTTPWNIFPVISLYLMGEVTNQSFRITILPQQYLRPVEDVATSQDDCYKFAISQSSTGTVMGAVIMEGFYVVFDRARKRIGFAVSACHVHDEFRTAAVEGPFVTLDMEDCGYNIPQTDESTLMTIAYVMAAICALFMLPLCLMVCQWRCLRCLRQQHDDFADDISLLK
Excerpt: Biochemical FRET Based Assay
This assay is a Fluorescence Resonance Energy Transfer Assay (FRET) based assay. The substrate for this assay is an APP derived 13 amino acids peptide that contains the ‘Swedish’ Lys-Met/Asn-Leu mutation of the amyloid precursor protein (APP) β-secretase cleavage site. This substrate also contains two fluorophores: (7-methoxycoumarin-4-yl)acetic acid (Mca) is a fluorescent donor with excitation wavelength at 320 nm and emission at 405 nm and 2,4-Dinitrophenyl (Dnp) is a proprietary quencher acceptor. […] Upon cleavage by BACE1, the fluorophore Mca is separated from the quenching group Dnp, restoring the full fluorescence yield of the donor. The increase in fluorescence is linearly related to the rate of proteolysis (Koike H et al. J. Biochem. 1999, 126, 235-242). Briefly in a 384-well format recombinant BACE1 protein in a final concentration of 1 μg/ml is incubated for 120 min at room temperature with 10 μm substrate in incubation buffer (40 mM Citrate buffer pH 5.0, 0.04% PEG, 4% DMSO) in the absence or presence of compound. Next the amount of proteolysis is directly measured by fluorescence measurement at T=0 and T=120 (excitation at 320 nm and emission at 405 nm).

[5] = 30 mg/kg p.o., 2 h after administration
[6] = 10 mg/kg p.o., 4 h. after administration
[7] = 5 mg/kg p.o., 4 h. after administration
[8] = 30 mg/kg p.o., 4 h. after administration
[9] = 100 mg/kg s.c., 4 h. after administration

Compound	Aβtotal (% Ctrl)_Mean (brain levels of total Aβ; [6]) [% Ctrl]	IC50 [1] [nM]	Aβ42 (% Ctrl)_Mean [2, 6] [% Ctrl]	IC50 [3] [nM]	IC50 [4] [nM]	other results
COc1cnc(C(=O)Nc2cccc(C3(C)Cn4nc(C(F)(F)F)cc4C(N)=N3)c2)cn1 (single isomer, unassigned) [Compound 32]	–	–	–	–	–	Aβtotal (% Ctrl)_Mean (brain levels of total Aβ; [5]): 58 % Ctrl; Cellular αlisa assay in SKNBE2 cells Aβtotal pIC50 [1]: 7.84; Aβ42 (% Ctrl)_Mean [2, 5]: 53 % Ctrl; Cellular αlisa assay in SKNBE2 cells Aβ42 pIC50 [3]: 7.76; Biochemical FRET based assay pIC50 [4]: 7.20
COc1cnc(C(=O)Nc2ccc(F)c([C@]3(C)Cn4nc(C#N)cc4C(N)=N3)c2)cn1 [Compound 23, (R)-5-methoxy-pyrazine-2-carboxylic acid [3-(4-amino-2-cyano-6-methyl-6,7-dihydro-pyrazolo[1,5-a]pyrazin-6-yl)-4-fluoro-phenyl]-amide]	39	1.95	45	1.78	39.8	–
C[C@@]1(c2cc(NC(=O)c3ccc(F)cn3)ccc2F)Cn2nc(C#N)cc2C(N)=N1 [Compound 24, (R)-5-fluoro-pyridine-2-carboxylic acid [3-(4-amino-2-cyano-6-methyl-6,7-dihydro-pyrazolo[1,5-a]pyrazin-6-yl)-4-fluoro-phenyl]-amide]	–	3.89	–	3.31	32.4	Aβtotal (% Ctrl)_Mean (brain levels of total Aβ; [7]): 59 % Ctrl; Aβtotal (% Ctrl)_Mean (brain levels of total Aβ; [8]): 31 % Ctrl; Aβ42 (% Ctrl)_Mean [2, 7]: 66 % Ctrl; Aβ42 (% Ctrl)_Mean [2, 8]: 16 % Ctrl
C[C@@]1(c2cc(NC(=O)c3ccc(F)cn3)ccc2F)Cn2nc(C(F)F)cc2C(N)=N1 [Compound 27, (R)-5-fluoro-pyridine-2-carboxylic acid [3-(4-amino-2-difluoromethyl-6-methyl-6,7-dihydro-pyrazolo[1,5-a]pyrazin-6-yl)-4-fluoro-phenyl]-amide]	61	6.76	55	7.08	60.3	–
COc1cnc(C(=O)Nc2ccc(F)c([C@]3(C)Cn4nc(C(F)F)cc4C(N)=N3)c2)cn1 [Compound 28, (R)-5-methoxy-pyrazine-2-carboxylic acid [3-(4-amino-2-difluoromethyl-6-methyl-6,7-dihydro-pyrazolo[1,5-a]pyrazin-6-yl)-4-fluoro-phenyl]-amide]	50	6.31	39	5.25	69.2	–
COc1cnc(C(=O)Nc2ccc(F)c([C@]3(C)Cn4nc(C)c(F)c4C(N)=N3)c2)cn1 [Compound 29, (R)-5-methoxy-pyrazine-2-carboxylic acid [3-(4-amino-3-fluoro-2,6-dimethyl-6,7-dihydro-pyrazolo[1,5-a]pyrazin-6-yl)-4-fluoro-phenyl]-amide]	58	17	59	16.2	81.3	–
CC1(c2cc(NC(=O)c3ccc(F)cn3)ccc2F)Cn2ncc(F)c2C(N)=N1 (stereo not shown) [Compound 33]	–	–	–	–	–	Aβtotal (% Ctrl)_Mean (brain levels of total Aβ; [9]): 20 % Ctrl; Cellular αlisa assay in SKNBE2 cells Aβtotal pIC50 [1]: 8.14; Aβ42 (% Ctrl)_Mean [2, 9]: 49 % Ctrl; Cellular αlisa assay in SKNBE2 cells Aβ42 pIC50 [3]: 8.09; Biochemical FRET based assay pIC50 [4]: 7.19
